Earlier results on 1 compound are cited in patent US20250325495A1, “SILK NANOPARTICLE SYNTHESIS: TUNING SIZE, DISPERSITY, AND SURFACE CHEMISTRY FOR DRUG DELIVERY” (Trustees of Tufts College, priority 2022, published 2025).

The data set relates to GBM cell lines. To be noted: compared with temozolomide.

For `COc1cccc2c1C(=O)c1c(O)c3c(c(O)c1C2=O)C[C@@](O)(C(=O)CO)C[C@@H]3O[C@H]1C[C@H](N)[C@H](O)[C@H](C)O1` [doxorubicin], the cytotoxic effects entry is on record as “superior cytotoxic effects”.
